Results as given in US20050170485A1, “Culture having phenol oxidase-like activity” (priority 2002, published 2005).

What was measured:
Type in all cases: biochemical
[1] = test system: culture of Flammulina velutipes strain IFO 30601; assay: Decolorization / oxidative degradation / oxidative polymerization of pigments and lignin by the culture; settings: for Specific Activity, Culture: reaction pH 7.0, 25° C., without sign = degradation or decolorization, minus = polymerization activity; for specificity of the culture compared with bilirubin oxidase from the genus Myrothecium: Table 3; for reaction of the substrate catalyzed by the culture (in words): neutral conditions
Text: The decolorization activity on the respective dyes can be evaluated by measuring as the dye, Evans' Blue, Acid Blue 80, Remazol Brilliant Blue R and Acid Violet 17 in the step c) for their absorbance at 600 nm, 600 nm, 600 nm and 550 nm respectively. In addition, regarding the lignin, the oxidative degradation activity on the respective dyes can be evaluated by measuring the absorbance at 450 nm in the step c). The oxidative polymerization activity on the respective dyes can be evaluated by measuring as the dye, Indigo Carmine and Natural Orange 6 in the step c) for their absorbance at 600 nm and 450 nm respectively.
Next, chemical changes of various substrates generated by the action of the culture for the substrate specificity of the culture obtained in (2) of Example 1 was examined by determining a change in the absorbance of the buffer containing each substrate.
As the substrate, commercially available pigments (Evans' Blue, Acid Blue 80, Remazol Brilliant Blue R, Indigo Carmine, Acid Violet 17, Natural Orange) and lignin (trade name: Lignin Alkali, manufactured by Tokyo Kasei) were used.
(§1) Concretely, 950 μl of 105.3 mM sodium phosphate buffer (pH 7.0) containing a substrate adjusted to have a final concentration as shown in Table 2 was pre-incubated at 25° C. for 5 minutes. Next, 50 μl of the culture solution was added to the resulting product, and thereafter, the mixture was reacted in a cuvette. The absorbance for each substrate was determined at a measuring wavelength with a spectrophotometer (manufactured by Shimadzu Corporation, trade name: UV-2450). For the comparison, the examination was also made for bilirubin oxidase from a strain belonging to the genus Myrothecium in the same manner by replacing the above-mentioned buffer with 105.3 mM Tris-HCl buffer (pH 8.0).
(§2) Here, 1 U (unit) of the activity was defined as an amount for increasing the absorbance by 1 per one minute. In Table 3, a specific activity shown without a sign indicates degradation activity or decolorization activity, and a specific activity shown with—(minus) indicates polymerization activity.

[2] = target: T1, bilirubin oxidase from a strain belonging to the genus Myrothecium (Albifimbria verrucaria, UniProt Q12737); assay: Decolorization / degradation / polymerization of pigments and lignin by bilirubin oxidase (comparison); settings: reaction pH 8.0; without sign = degradation or decolorization, minus = polymerization activity
T1 sequence (Q12737 39-572): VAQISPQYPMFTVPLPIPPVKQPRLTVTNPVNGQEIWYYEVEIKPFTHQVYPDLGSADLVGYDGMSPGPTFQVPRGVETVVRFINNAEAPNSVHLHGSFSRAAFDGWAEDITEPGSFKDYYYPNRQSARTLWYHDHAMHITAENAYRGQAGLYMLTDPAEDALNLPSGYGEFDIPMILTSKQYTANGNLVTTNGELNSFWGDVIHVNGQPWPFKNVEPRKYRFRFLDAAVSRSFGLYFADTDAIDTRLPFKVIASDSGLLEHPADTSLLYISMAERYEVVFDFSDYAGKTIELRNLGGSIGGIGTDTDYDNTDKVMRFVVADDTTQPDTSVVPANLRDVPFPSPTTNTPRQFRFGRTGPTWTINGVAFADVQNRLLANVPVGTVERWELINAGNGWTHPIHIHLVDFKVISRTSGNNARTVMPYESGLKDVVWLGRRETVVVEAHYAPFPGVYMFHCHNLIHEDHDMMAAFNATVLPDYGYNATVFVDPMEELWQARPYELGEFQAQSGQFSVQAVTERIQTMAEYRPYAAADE
Protocol: as §1, §2

[3] = test system: culture of Flammulina velutipes strain IFO 30601; assay: Substrate specificity of the culture (phenol oxidase-like activity, Table 1); settings: pH 7.0; determined wavelength per substrate (Table 1)
[4] = test system: culture of Flammulina velutipes strain IFO 30601; assay: Oxidative coupling reaction with 4-aminoantipyrine by the culture; settings: for activity of the culture for the substrate in words, oxidative coupling reaction: pH 7.0; for Specific Activity, Culture (oxidative coupling with 4-aminoantipyrine): reaction pH 7.0, 25° C., substrate 2.0 mM
Protocol: Next, the oxidative coupling reaction of the culture obtained in (2) in Example 1 mentioned above was determined by using color development as an index by the oxidative condensation of the substrate (hydrogen donor) with 4-aminoantipyrine, catalyzed by the culture of the present invention.
As the hydrogen donors, there were used phenolic compounds (phenol, 2-methoxyphenol, 2,6-dimethoxyphenol, catechol, resorcinol, hydroquinone, pyrogallol, gallic acid, propyl gallate, 1-naphthol, catechin), aminophenolic compounds (o-aminophenol, m-aminophenol, p-aminophenol), diaminophenolic compounds (o-phenylenediamine, m-phenylenediamine, p-phenylenediamine), and heterocyclic compounds (5-hydroxyindole, 2,6-diaminopyridine).
The above-mentioned culture solution was added to a reaction system containing 4-aminoantipyrine and an optional hydrogen donor. Thereafter, the activity of the culture of the present invention was assayed by determining a change in absorbance at 490 nm for the phenolic compound, the diaminophenolic compound and the heterocyclic compound, or determining a change in absorbance at 450 nm for the aminophenolic compound. As to a substrate hardly soluble in water, there was used one obtained by dissolving the substrate in a small amount of dimethyl sulfoxide and diluting the resulting solution with deionized water to a desired concentration. In Table 4, DMSO is an abbreviation for dimethyl sulfoxide.
(§3) Concretely, 190 μl of 105.3 mM phosphate buffer (pH 7.0) containing 0.4 μmol of a substrate and 4.0 μmol of 4-aminoantipyrine was pre-incubated in wells of a 96-well microplate [manufactured by Corning, Costor (registered trademark) 3368] at 25° C. for 1 minute. Next, 10 μl of the above-mentioned culture solution was added to the resulting mixture, and thereafter, the mixture was incubated for 1 hour. A change in absorbance at 490 nm or 450 nm was determined for the resulting product. One unit (U) of the activity regarding the oxidative coupling reaction was defined as an amount for increasing the absorbance by 1 per one minute.

[5] = target: T2, bilirubin oxidase from the strain of the genus Myrothecium (Albifimbria verrucaria, UniProt Q12737); assay: Oxidative coupling reaction with 4-aminoantipyrine by bilirubin oxidase (comparison); settings: reaction pH 8.0, substrate 2.0 mM
T2 sequence (Q12737 39-572): T1 sequence (Q12737 39-572)
Protocol: as §3
In addition, for the comparison, the examination was made in the same manner for bilirubin oxidase from the strain of the genus Myrothecium except that the above-mentioned buffer was replaced with 105.3 mM Tris-HCl buffer (pH 8.0).

[6] = test system: culture of Flammulina velutipes strain IFO 30601; assay: Direct oxidation reaction by the culture; settings: for activity of the culture compared with bilirubin oxidase from the genus Myrothecium, direct oxidation / activity of the culture compared with laccase from Japanese lacquer, direct oxidation: pH 7.0, relative activities of Table 7; for Relative Activity, Culture (direct oxidation): reaction pH 7.0, 2-chloro 1,4-phenylenediamine = 100; for activity of the culture for the substrate in words, direct oxidation reaction: pH 7.0
Protocol: Further, the direct oxidation reaction of the culture obtained in the above-mentioned example was determined by using color development due to oxidative polymerization of a substrate generated by the direct action of the culture of the present invention on the substrate as an index.
As the substrates, there were used diaminophenolic compounds (2-chloro 1,4-phenylenediamine, p-phenylenediamine, 2,5-diaminotoluene, N-phenyl-p-phenylenediamine, toluylene-3,4-diamine, m-phenylenediamine), aminophenolic compounds (o-aminophenol, m-aminophenol, 5-amino-o-cresol, p-aminophenol, p-methylaminophenol), and phenolic compounds (2,6-dimethoxyphenol, catechol, resorcinol, hydroquinone, pyrogallol, gallic acid, propyl gallate, 1-naphthol, […], 2,3,4-trihydroxybenzophenone, 2,3,4,4-tetrahydroxybenzophenone). As to a substrate hardly soluble in water, there was used one obtained by dissolving the substrate in a small amount of dimethyl sulfoxide and diluting the resulting solution with deionized distilled water to a desired concentration. In Table 6, %” indicates volume/volume %.
(§4) Concretely, 180 μl of 0.89 mM sodium phosphate buffer (pH 7.0) containing […] substrate was pre-incubated in wells of a 96-well microplate [manufactured by Corning, Costor (registered trademark) 3368] at 25° C. for 1 minute. Next, 20 μl of the above-mentioned culture solution was added to the resulting mixture. A change in absorbance at 490 nm, 450 nm or 405 nm was determined for the resulting product, depending on the substrate. Here, 1 U (unit) of the activity regarding the direct oxidative reaction was defined as an amount for increasing the absorbance by 1 per one minute.

[7] = test system: laccase from Japanese lacquer; assay: Direct oxidation reaction by laccase (comparison); settings: reaction pH 7.0; 2-chloro 1,4-phenylenediamine = 100
Protocol: Next, 20 μl of the above-mentioned culture solution was added to the resulting mixture. A change in absorbance at 490 nm, 450 nm or 405 nm was determined for the resulting product, depending on the substrate. Here, 1 U (unit) of the activity regarding the direct oxidative reaction was defined as an amount for increasing the absorbance by 1 per one minute.
(§5) In addition, for the comparison, the substrate specificities at pH 7.0 for laccase from Japanese lacquer and bilirubin oxidase from the strain belonging to the genus Myrothecium were also examined in the same manner.

[8] = target: T3, bilirubin oxidase from the strain belonging to the genus Myrothecium (Albifimbria verrucaria, UniProt Q12737); assay: Direct oxidation reaction by bilirubin oxidase (comparison); parameters: concentration or dose not given beside the values; settings: reaction pH 7.0; 2-chloro 1,4-phenylenediamine = 100
T3 sequence (Q12737 39-572): T1 sequence (Q12737 39-572)
Protocol: as §4, §5
The relative activity (%) for each substrate is shown in Table 7, in which the measured value for a case where a representative chemical dye 2-chloro 1,4-phenylenediamine was used as a substrate is 100.

Structure (SMILES)	Specific Activity, Culture [1] [U/mg Protein]	Specific Activity, Bilirubin Oxidase from Strain Belonging to Genus Myrothecium [2] [U/mg Protein]	specificity of the culture compared with bilirubin oxidase from the genus Myrothecium [1]	reaction of the substrate catalyzed by the culture (in words) [1]	U (activity of the culture on the substrate) [3] [U]	activity of the culture for the substrate in words, oxidative coupling reaction [4]	Specific Activity, Culture (oxidative coupling with 4-aminoantipyrine) [4] [U/mg Protein]	Specific Activity, Bilirubin Oxidase from Strain Belonging to Genus Myrothecium (oxidative coupling with 4-aminoantipyrine) [5] [U/mg Protein]	activity of the culture compared with bilirubin oxidase from the genus Myrothecium, direct oxidation [6]	activity of the culture compared with laccase from Japanese lacquer, direct oxidation [6]	Relative Activity, Culture (direct oxidation) [6] [%]	Relative Activity, Laccase from Japanese Lacquer (direct oxidation) [7] [%]	Relative Activity, Bilirubin Oxidase from Strain Belonging to Genus Myrothecium (direct oxidation) [8] [%]	activity of the culture for the substrate in words, direct oxidation reaction [6]
Cc1cc(C)c(S(=O)(=O)[O-])c(C)c1Nc1ccc(Nc2c(C)cc(C)c(S(=O)(=O)[O-])c2C)c2c1C(=O)c1ccccc1C2=O.[Na+].[Na+] [Acid Blue 80]	0.30	0.39												
CCN(CC)c1ccc(C(=C2C=CC(=[N+](CC)Cc3cccc(S(=O)(=O)[O-])c3)C=C2)c2ccc(N(CC)Cc3cccc(S(=O)(=O)[O-])c3)cc2)cc1.[Na+] [Acid Violet 17]	0.12	−0.40	significantly differs	oxidative decolorization reaction										
Cc1cc(-c2ccc(/N=N/c3ccc4c(S(=O)(=O)[O-])cc(S(=O)(=O)[O-])c(N)c4c3O)c(C)c2)ccc1/N=N/c1ccc2c(S(=O)(=O)[O-])cc(S(=O)(=O)[O-])c(N)c2c1O.[Na+].[Na+].[Na+].[Na+] [Evans' Blue]	0.32	1.22												
Nc1c(S(=O)(=O)[O-])cc(Nc2cccc(S(=O)(=O)CCOS(=O)(=O)[O-])c2)c2c1C(=O)c1ccccc1C2=O.[Na+].[Na+] [Remazol Brilliant Blue R]	0.97	−0.18	significantly differs	strongly catalyzed										
Oc1ccccc1O [Catechol]					0.029	especially high activity	23.3	16.0	higher activity	even higher activity	21	2	5	
COc1cccc(OC)c1O [2,6-Dimethoxyphenol]					0.830	especially high activity	18.1	12.0	even higher activity	even higher activity	250	21	69	high activity
Nc1ccccc1O [o-Aminophenol]					0.262	especially high activity	22.4	15.1	even higher activity	even higher activity	650	103	86	especially high activity
